In patent publication US20170135339A1, “COATING FORMULATION FOR SEED AND SURFACE STERILIZATION” (priority 2015, published 2017):

Tests used:
[1] = system: Human adenovirus type 5 Adenoid 75 strain
[2] = system: Poliovirus type 1 Chat strain

With zinc pyrithione the “Cytopathic effect on the cells in the cell culture” value (HEp-2 cells) was “showed cytopathic effect”, the “Lowest ratio of zinc pyrithione solution which does not show cytopathic effect” value (HEp-2 cells) was 0.01% and the “Activity against the virus” value [1] was 99.9%. For the same substance, the “Reduction in virus titration” value [1] was “at least 4 log”, the “Reduction ratio in virus titration” value [1] was 4.0 Logarithmic TCID50 and the “Virus titration with disinfectant” value [1] was 1.0 Logarithmic TCID50. The “Reduction in virus titration” value [2] was “at least 4 log”, the “Reduction ratio in virus titration” value [2] was 4.5 Logarithmic TCID50 and the “Virus titration with disinfectant” value [2] was 1.5 Logarithmic TCID50.
